Measurements: patent publication US7169579B2, “Method of isolating Streptococcus sobrinus and selection medium” (Nihon University, priority 2001, dated 2007)
Values after ≈ are worked out from the molar mass of the structure shown. Read-outs that look alike come from different tables or passages of the source. Values belong to the molecule of their own block, whether it stands above or below them.

Experiments:
Assay type in all cases: cell-based
[1] = system: Streptococcus sobrinus; assay: Susceptibility test to antibiotics, microbroth dilution method (MIC)
Experimental: (§1) The susceptibility test was carried out in accordance with microbroth dilution method.
(§2) The above-described antibiotics were dissolved in an appropriate solution, respectively, and the respective antibiotic solutions were divided into serial two-fold dilutions in a 96-well microtiter plates containing BHI broth. The bacteria were precultured in BHI broth, respectively, and inoculated into the wells containing the antibiotic solution to make a final concentration of the bacteria to be 1×10^4 cells/well, respectively. The plates were anaerobically incubated at a temperature of 37° C. for 48 hours. After mixing the broth in each well by the use of a pipette, the absorbance at 550 nm in each well was measured with a microplate reader (manufactured by Corona Electric Co., Ibaraki, Japan), to determine bacterial growth. The antibiotic concentration at which no bacterial growth was observed was defined as the minimal inhibitory concentration (MIC).

[2] = system: Streptococcus mutans; assay: as above; conditions: for susceptibilities of Streptococcus mutans relative to those of Streptococcus sobrinus: from MICs of Table 2; for difference between Streptococcus mutans and Streptococcus sobrinus in their susceptibilities: in words, from MICs of Tables 2 and 3
Experimental: as §1, §2

[3] = system: Streptococcus sobrinus; assay: Recovery from no-growth wells on MS agar: bactericidal or bacteriostatic
Experimental: (§3) Aliquots of 10 μl of the broth in the well, which no bacterial growth was observed were inoculated onto Mitis Salivarius Agar (MS medium; manufactured by Difco) plates, respectively, and anaerobically incubated at a temperature of 37° C. for 48 hours. The recovery of the inoculated bacteria was calculated to estimate which the mechanism of growth inhibition was bactericidal or bacteriostatic.

[4] = system: Streptococcus mutans; assay: as above
Experimental: as §3

[5] = Streptococcus sobrinus, Streptococcus sobrinus 0MZ176 (serotype d), read-out: MIC
[6] = Streptococcus sobrinus, Streptococcus sobrinus B-13 (serotype d), read-out: MIC
[7] = Streptococcus sobrinus, Streptococcus sobrinus NIDR6715, serotype g, read-out: MIC
[8] = Streptococcus sobrinus, Streptococcus sobrinus NUM-Ssd1, serotype d, read-out: MIC
[9] = Streptococcus sobrinus, Streptococcus sobrinus NUM-Ssd2, serotype d, read-out: MIC
[10] = Streptococcus sobrinus, Streptococcus sobrinus OMZ65, serotype g, read-out: MIC
[11] = Streptococcus sobrinus, strains of Table 2, read-out: MIC to Streptococcus sobrinus
[12] = Streptococcus mutans, Streptococcus mutans 10449 (serotype c), read-out: MIC
[13] = Streptococcus mutans, Streptococcus mutans Ingbritt, serotype c, read-out: MIC
[14] = Streptococcus mutans, Streptococcus mutans JC2 (serotype c), read-out: MIC
[15] = Streptococcus mutans, Streptococcus mutans LM7, serotype e, read-out: MIC
[16] = Streptococcus mutans, Streptococcus mutans NUM-Sme1, serotype e, read-out: MIC
[17] = Streptococcus mutans, Streptococcus mutans NUM-Smf1, serotype f, read-out: MIC
[18] = Streptococcus mutans, Streptococcus mutans OMZ175, serotype f, read-out: MIC
[19] = Streptococcus mutans, Streptococcus mutans PS14, serotype c, read-out: MIC
[20] = Streptococcus mutans, strains of Table 2, read-out: MIC to Streptococcus mutans
[21] = Streptococcus mutans, strains of serotype f of Streptococcus mutans, summary of Table 3, read-out: MIC
[22] = Streptococcus mutans, strains of serotypes c and e of Streptococcus mutans, summary of Table 3, read-out: MIC
[23] = Streptococcus sobrinus strains of Table 3
[24] = Streptococcus sobrinus, strains of Table 2
[25] = Streptococcus mutans strains of Table 3
[26] = Streptococcus mutans, strains of Table 2
[27] = Streptococcus mutans 10449 (serotype c)

MIC [1, 5]: 0.25 µg/mL (≈ 0.55 µM) | MIC [1, 6]: 0.5 µg/mL (≈ 1.1 µM) | MIC [2, 12]: 0.25 µg/mL (≈ 0.55 µM) | MIC [2, 14]: 0.25 µg/mL (≈ 0.55 µM)
SMILES: Cc1nnc(SCC2=C(C(=O)O)N3C(=O)[C@@H](NC(=O)Cn4cnnn4)[C@H]3SC2)s1 [Cefazoline]
difference between Streptococcus mutans and Streptococcus sobrinus in their susceptibilities [2]: no significant difference

MIC [1, 5]: 12.5 µg/mL (≈ 29.2 µM) | MIC [1, 6]: 3.13 µg/mL (≈ 7.32 µM) | MIC [2, 12]: 3.13 µg/mL (≈ 7.32 µM) | MIC [2, 14]: 3.13 µg/mL (≈ 7.32 µM)
SMILES: CO[C@@]1(NC(=O)Cc2cccs2)C(=O)N2C(C(=O)O)=C(COC(N)=O)CS[C@@H]21 [Cefoxitin]
susceptibility of OMZ176 strain relative to the other bacterial strains ([1]; Streptococcus sobrinus OMZ176 vs other strains of Table 2): approximately 4 times | difference between Streptococcus mutans and Streptococcus sobrinus in their susceptibilities [2]: no significant difference

MIC [1, 5]: 1.25 µg/mL (≈ 3.6 µM) | MIC [1, 6]: 1.25 µg/mL (≈ 3.6 µM) | MIC [2, 12]: 1.25 µg/mL (≈ 3.6 µM) | MIC [2, 14]: 1.25 µg/mL (≈ 3.6 µM)
SMILES: CC1=C(C(=O)O)N2C(=O)[C@@H](NC(=O)[C@H](N)c3ccccc3)[C@H]2SC1 [Cephalexin]
difference between Streptococcus mutans and Streptococcus sobrinus in their susceptibilities [2]: no significant difference

Further lines, the molecule ahead of its results:

SMILES: C[C@H]1[C@H](NC(=O)/C(=N\OC(C)(C)C(=O)O)c2csc(N)n2)C(=O)N1S(=O)(=O)O [Aztreonam]
MIC [1, 5]: 2000 µg/mL (≈ 4590 µM) | MIC [1, 6]: 2000 µg/mL (≈ 4590 µM) | MIC [1, 7]: 2000 µg/mL (≈ 4590 µM) | MIC [1, 8]: 2000 µg/mL (≈ 4590 µM) | MIC [1, 9]: 2000 µg/mL (≈ 4590 µM) | MIC [1, 10]: 2000 µg/mL (≈ 4590 µM) | MIC [1, 11]: 2000 µg/mL (≈ 4590 µM) | MIC [2, 12]: 125 µg/mL (≈ 287 µM) | MIC [2, 13]: 125 µg/mL (≈ 287 µM) | MIC [2, 14]: 125 µg/mL (≈ 287 µM) | MIC [2, 15]: 125 µg/mL (≈ 287 µM) | MIC [2, 16]: 125 µg/mL (≈ 287 µM) | MIC [2, 17]: 250 µg/mL (≈ 574 µM) | MIC [2, 18]: 250 µg/mL (≈ 574 µM) | MIC [2, 19]: 125 µg/mL (≈ 287 µM) | MIC [2, 20]: 125 µg/mL (≈ 287 µM) | MIC [2, 21]: 250 µg/mL (≈ 574 µM) | MIC [2, 22]: 125 µg/mL (≈ 287 µM) | susceptibilities of Streptococcus mutans relative to those of Streptococcus sobrinus [2]: 16 fold | mode of action (bactericidal or bacteriostatic) [3, 23]: bactericidal | mode of action (bactericidal or bacteriostatic) [3, 24]: bactericidal | mode of action (bactericidal or bacteriostatic) [4, 25]: bactericidal | mode of action (bactericidal or bacteriostatic) [4, 26]: bactericidal

SMILES: CC1(C)S[C@@H]2[C@H](NC(=O)Cc3ccccc3)C(=O)N2[C@H]1C(=O)O [Benzylpenicillin]
MIC [1, 5]: 0.05 µg/mL (≈ 0.15 µM) | MIC [1, 6]: 0.05 µg/mL (≈ 0.15 µM) | susceptibilities of Streptococcus sobrinus relative to those of Streptococcus mutans ([1]; from MICs of Table 2): twice as high | MIC [2, 12]: 0.1 µg/mL (≈ 0.299 µM) | MIC [2, 14]: 0.1 µg/mL (≈ 0.299 µM)

SMILES: NC(=O)OC[C@@H]1[C@H](NC(=O)/C(=N\OCC(=O)O)c2csc(N)n2)C(=O)N1S(=O)(=O)O [Carumonam]
MIC [1, 5]: 2000 µg/mL (≈ 4290 µM) | MIC [1, 6]: 2000 µg/mL (≈ 4290 µM) | MIC [1, 7]: 2000 µg/mL (≈ 4290 µM) | MIC [1, 8]: 2000 µg/mL (≈ 4290 µM) | MIC [1, 9]: 2000 µg/mL (≈ 4290 µM) | MIC [1, 10]: 1000 µg/mL (≈ 2140 µM) | MIC [1, 11]: 2000 µg/mL (≈ 4290 µM) | MIC [2, 12]: 125 µg/mL (≈ 268 µM) | MIC [2, 13]: 125 µg/mL (≈ 268 µM) | MIC [2, 14]: 125 µg/mL (≈ 268 µM) | MIC [2, 15]: 125 µg/mL (≈ 268 µM) | MIC [2, 16]: 125 µg/mL (≈ 268 µM) | MIC [2, 17]: 250 µg/mL (≈ 536 µM) | MIC [2, 18]: 250 µg/mL (≈ 536 µM) | MIC [2, 19]: 125 µg/mL (≈ 268 µM) | MIC [2, 20]: 125 µg/mL (≈ 268 µM) | MIC [2, 21]: 250 µg/mL (≈ 536 µM) | MIC [2, 22]: 125 µg/mL (≈ 268 µM) | susceptibilities of Streptococcus mutans relative to those of Streptococcus sobrinus [2]: 16 fold | mode of action (bactericidal or bacteriostatic) [3, 23]: bactericidal | mode of action (bactericidal or bacteriostatic) [3, 24]: bactericidal | mode of action (bactericidal or bacteriostatic) [4, 25]: bactericidal | mode of action (bactericidal or bacteriostatic) [4, 26]: bactericidal

SMILES: O=C(Cc1cccs1)N[C@@H]1C(=O)N2C(C(=O)[O-])=C(C[n+]3ccccc3)CS[C@H]12 [Cephaloridine]
MIC ([1]; Streptococcus sobrinus): 0.025 µg/mL (≈ 0.0602 µM) | MIC ([1]; Streptococcus sobrinus B-13 (serotype d)): 0.025 µg/mL (≈ 0.0602 µM) | MIC ([2]; Streptococcus mutans): 0.025 µg/mL (≈ 0.0602 µM) | MIC [2, 27]: 0.025 µg/mL (≈ 0.0602 µM) | difference between Streptococcus mutans and Streptococcus sobrinus in their susceptibilities [2]: no significant difference

SMILES: Cc1onc(-c2ccccc2Cl)c1C(=O)N[C@@H]1C(=O)N2[C@@H]1SC(C)(C)[C@@H]2C(=O)O [Cloxacillin]
MIC [1, 5]: 1.25 µg/mL (≈ 2.87 µM) | MIC [1, 6]: 1.25 µg/mL (≈ 2.87 µM) | MIC [2, 12]: 0.63 µg/mL (≈ 1.45 µM) | MIC [2, 14]: 0.63 µg/mL (≈ 1.45 µM) | susceptibilities of Streptococcus mutans relative to those of Streptococcus sobrinus [2]: twice as high

SMILES: C[C@@H](O)[C@H]1C(=O)N2C(C(=O)O)=C(SCCN=CN)C[C@H]12 [Imipenem]
MIC [1, 5]: 0.031 µg/mL (≈ 0.104 µM) | MIC [1, 6]: 0.016 µg/mL (≈ 0.0534 µM) | MIC ([2]; Streptococcus mutans): 0.125 µg/mL (≈ 0.418 µM) | MIC [2, 27]: 0.125 µg/mL (≈ 0.418 µM)
